# Measurements reported in patent US20060161001A1, “Substituted heterocyclic compounds and methods of use” (Amgen Inc., priority 2004, published 2006).
# pIC50: −log10 of the molar value.
# System: LPS induced TNF release
# Assay: THP1 cell assay (LPS induced TNF release)
# Type: cell-based
# Details: Homo sapiens, THP-1; THP1 cells, LPS induced TNF-α secretion, 3 h at 37° C.
# Procedure: Lipopolysaccharide-Activated THP1 Cell TNF Production Assay
# THP1 cells are resuspended in fresh THP1 media (RPMI 1640, 10% heat-inactivated FBS, 1XPGS, 1XNEAA, plus 30 μM OME) at a concentration of 1E6/mL. One hundred microliters of cells per well are plated in a polystyrene 96-well tissue culture. One microgram per mL of bacterial LPS is prepared in THP1 media and is transferred to the wells. Test compounds are dissolved in 100% DMSO and are serially diluted 3-fold in a polypropylene 96-well microtiter plate (drug plate). HI control and LO control wells contain only DMSO. One microliter of test compound from the drug plate followed by 10 μL of LPS are transferred to the cell plate. The treated cells are induced to synthesize and secrete TNF-α at 37° C. for 3 h. Forty microliters of conditioned media are transferred to a 96-well polypropylene plate containing 110 μL of ECL buffer (50 mM Tris-HCl pH 8.0, 100 mM NaCl, 0.05% Tween 20, 0.05% NaN3 and 1% FBS) supplemented with 0.44 nM MAB610 monoclonal Ab (R&D Systems), 0.34 nM ruthenylated AF210NA polyclonal Ab (R&D Systems) and 44 μg/mL sheep anti-mouse M280 Dynabeads (Dynal). After a 2 h incubation at RT with shaking, the reaction is read on the ECL M8 Instrument (IGEN Inc.). A low voltage is applied to the ruthenylated TNF-α immune complexes, which in the presence of TPA (the active component in Origlo), results in a cyclical redox reaction generating light at […]. The amount of secreted TNF-α in the presence of compound compared with that in the presence of DMSO vehicle alone (HI control) is calculated using the formula: % control (POC)=(cpd−average LO)/(average HI−average LO)*100. Data (consisting of POC and inhibitor concentration in μM) is fitted to a 4-parameter equation (y=A+((B−A)/(I+((x/C)ˆD))), where A is the minimum y (POC) value, B is the maximum y (POC), C is the x (cpd concentration) at the point of inflection and D is the slope factor) using a Levenburg-Marquardt non-linear regression algorithm.
row,Compound,pIC50
1,C[C@@H](Cc1cccc(CN)c1)Nc1nccc(N2CCCc3cnc(-c4ccccc4)cc32)n1 [Example 38],≥ 4.70
2,"C[C@@H](Cc1cccc([C@@H](C)N)c1)Nc1nccc(N2CCOc3cnc(-c4ccccc4)nc32)n1 [Example 100, N-((S)-1-(3-((R)-1-Aminoethyl)phenyl)propan-2-yl)-4-(2-phenyl-6,7-dihydropyrimido[5,4-b][1,4]oxazin-8-yl)pyrimidin-2-amine]",≥ 4.70
3,"c1ccc(CCNc2nccc(N3CCCc4cnc(-c5ccccc5)cc43)n2)cc1 [Example 3, N-Phenethyl-4-(7-phenyl-3,4-dihydro-1,6-naphthyridin-1(2H)-yl)pyrimidin-2-amine]",≥ 4.70
4,"CC(Cc1cccc(CO)c1)Nc1nc(N2CCCc3ccc(-c4ccccc4)nc32)cc(C(F)(F)F)n1 (stereo not drawn) [Example 57, (3-(2-(4-(7-Phenyl-3,4-dihydro-1,8-naphthyridin-1(2H)-yl)-6-(trifluoromethyl)-pyrimidin-2-ylamino)propyl)phenyl)methanol]",≥ 4.70
5,"CC(C)NCCC(=O)N1CCC(Nc2nccc(N3CCCc4cnc(-c5ccccc5)cc43)n2)CC1 [Example 14, 3-(Isopropylamino)-1-(4(4-(7-phenyl-3,4-dihydro-1,6-naphthyridin-1(2H)-yl)pyrimidin-2-ylamino)piperdin-1-yl)propan-1-one]",≥ 4.70
6,"CCOC(=O)c1cc2c(nc1-c1ccccc1)N(c1ccnc(NCCc3ccccc3)n1)CCC2 [Example 66, Ethyl 8-(2-(Phenethylamino)pyrimidin-4-yl)-2-phenyl-5,6,7,8-tetrahydro-1,8-naphthyridine-3-carboxylate]",≥ 4.70
7,CC(C)(C)OC(=O)N1CCC(Nc2ncc(F)c(N3CCCc4cnc(-c5ccccc5)cc43)n2)CC1 [Example 24],≥ 4.70
8,"CC(=O)N1CCC(Nc2nccc(N3CCOc4cnc(-c5ccccc5)nc43)n2)CC1 [Example 107, 1-(4-(4-(2-Phenyl-6,7-dihydropyrimido[5,4-b][1,4]oxazin-8-yl)pyrimidin-2-yl-amino)piperidin-1-yl)ethanone]",≥ 4.70
9,"CC(C)(O)c1cc2c(nc1-c1ccccc1)N(c1ccnc(N[C@H]3CC[C@H](N)CC3)n1)CCC2 [Example 78, 2-(8-(2-((1R,4R)-4-Aminocyclohexylamino)pyrimidin-4-yl)-2-phenyl-5,6,7,8-tetrahydro-1,8-naphthyridin-3-yl)propan-2-ol]",≥ 4.70
10,"CN(C)Cc1cc2c(nc1-c1ccccc1)N(c1ccnc(NCCc3ccccc3)n1)CCC2 [Example 71, 4-(6-((Dimethylamino)methyl)-7-phenyl-3,4-dihydro-1,8-naphthyridin-1(2H)-yl)-N-phenethylpyrimidin-2-amine]",≥ 4.70
11,"OCc1cc(-c2ccccc2)nc2c1CCCN2c1ccnc(NCCc2ccccc2)n1 [Example 86, (8-(2-(Phenethylamino)pyrimidin-4-yl)-2-phenyl-5,6,7,8-tetrahydro-1,8-naphthyridin-4-yl)methanol]",≥ 4.70

# The next lines start with the values.
row,pIC50,Compound
1,≥ 4.70,"Nc1cc2c(nc1-c1ccccc1)N(c1ccnc(NCCc3ccccc3)n1)CCC2 [Example 81, 8-(2-(Phenethylamino)pyrimidin-4-yl)-2-phenyl-5,6,7,8-tetrahydro-1,8-naphthyridin-3-amine]"
2,≥ 4.70,"CC(Cc1cccc(CN)c1)Nc1nccc(N2CCCc3cc(CO)c(-c4ccccc4)nc32)n1 (stereo not drawn) [Example 80, (8-(2-(1-(3-(Aminomethyl)phenyl)propan-2-ylamino)pyrimidin-4-yl)-2-phenyl-5,6,7,8-tetrahydro-1,8-naphthyridin-3-yl)methanol]"
3,≥ 4.70,"C[C@@H](Cc1cccc(C(C)(C)N)c1)Nc1nccc(N2CCCc3ncc(-c4ccccc4)cc32)n1 [Example 29, (S)-N-(1-(3-(2-Aminopropan-2-yl)phenyl)propan-2-yl)-4-(7-phenyl-3,4-dihydro-1,5-naphthyridin-1(2H)-yl)pyrimidin-2-amine]"
4,≥ 4.70,"CC(C)(C)OC(=O)N1CCC(Nc2nccc(N3CCCc4cnc(-c5ccccc5)cc43)n2)CC1 [Example 7, tert-Butyl 4-(4-(7-phenyl-3,4-dihydro-1,6-naphthyridin-1(2H)-yl)pyrimidin-2-ylamino)piperidine-1-carboxylate]"
5,≥ 4.70,"CC(=O)N1CCC(Nc2ncc(F)c(N3CCCc4cnc(-c5ccccc5)cc43)n2)CC1 [Example 26, 1-(4-(5-Fluoro-4-(7-phenyl-3,4-dihydro-1,6-naphthyridin-1(2H)-yl)pyrimidin-2-yl-amino)piperidin-1-yl)ethanone]"
6,≥ 4.70,"CC(Cc1cccc(CO)c1)Nc1nccc(N2CCCc3ccc(-c4ccccc4)nc32)n1 (stereo not drawn) [Example 48, (3-(2-(4-(7-Phenyl-3,4-dihydro-1,8-naphthyridin-1(2H)-yl)pyrimidin-2-yl-amino)propyl)phenyl)methanol]"
7,≥ 4.70,"COCc1cc2c(nc1-c1ccccc1)N(c1ccnc(NCCc3ccccc3)n1)CCC2 [Example 68, 4-(6-(Methoxymethyl)-7-phenyl-3,4-dihydro-1,8-naphthyridin-1(2H)-yl)-N-phenethylpyrimidin-2-amine]"
8,≥ 4.70,"CC(C)(N)CNc1nccc(N2CCCc3ccc(-c4ccccc4)nc32)n1 [Example 53, N-(2-Amino-2-methylpropyl)-4-(7-phenyl-3,4-dihydro-1,8-naphthyridin-1(2H)-yl)-pyrimidin-2-amine]"
9,≥ 4.70,"CC(Cc1cccc(CN)c1)Nc1nc(N2CCCc3ccc(-c4ccccc4)nc32)cc(C(F)(F)F)n1 (stereo not drawn) [Example 58, N-(1-(3-(Aminomethyl)phenyl)propan-2-yl)-4-(7-phenyl-3,4-dihydro-1,8-naphthyridin-1(2H)-yl)-6-(trifluoromethyl)pyrimidin-2-amine]"
10,≥ 4.70,"CC(C)NC1CCC(Nc2nccc(N3CCCc4cnc(-c5ccccc5)cc43)n2)CC1 [Example 37, (1R,4R)-N^1-Isopropyl-N^4-(4-(7-phenyl-3,4-dihydro-1,6-naphthyridin-1(2H)-yl)-pyrimidin-2-yl)cyclohexane-1,4-diamine]"
11,≥ 4.70,"CC(=O)NCC(C)(C)Nc1nccc(N2CCCc3cnc(-c4ccccc4)cc32)n1 [Example 42, N-(2-Methyl-2-(4-(7-phenyl-3,4-dihydro-1,6-naphthyridin-1(2H)-yl)pyrimidin-2-ylamino)propyl)acetamide]"
12,≥ 4.70,"CC(C)(C)OC(=O)N1CCC(Nc2nccc(N3CCCc4ncc(-c5ccccc5)cc43)n2)CC1 [Example 30, tert-Butyl-4(7-phenyl-3,4-dihydro-1,5-naphthylridin-1(2H)-pyrimidin-2-ylamino)-piperidine-1-carboxylate]"
13,≥ 4.70,"C[C@@H](Cc1cccc([C@@H](C)NC(=O)OC(C)(C)C)c1)Nc1nccc(N2CCOc3cnc(-c4ccccc4)nc32)n1 [Example 99, tert-Butyl (R)-1-(3-((S)-2-(4-(2-phenyl-6,7-dihydropyrimido[5,4-b][1,4]oxazin-8-yl)pyrimidin-2-ylamino)propyl)phenyl)ethylcarbamate]"
